Test results from patent publication EP4800018A1, “PAN-KRAS INHIBITOR AND USE THEREOF IN MEDICINES” (Betta Pharmaceuticals Co., Ltd., priority 2023, dated 2025).
Like-named read-outs stand apart in the source and are kept apart here.

Assay: PK Study of Compounds in Mice
Type: in vivo, Female ICR mice
Details: mean; for Cmax: read-out: C0/Cmax
Description: The test compound was mixed with the vehicle (10% DMSO/5% Solutol/85% physiological saline), vortexed and sonicated to prepare a clear 0.2 mg/mL intravenous injection solution. The test compound was mixed with the vehicle (20% PEG400/10% Solutol/70% pH 4.5 acetate buffer), vortexed and sonicated to prepare a clear 1 mg/mL oral solution. Female ICR mice aged 6 to 7 weeks were selected and administered the test compound via intravenous (IV) and oral (PO) routes, respectively. Whole blood samples were collected at 5 min, 15 min, 30 min, 1 h, 2 h, 4 h, 7 h, and 24 h for the intravenous route, and at 15 min, 30 min, 1 h, 2 h, 4 h, 7 h, and 24 h for the oral route. Drug concentrations were analyzed by LC-MS/MS method, and pharmacokinetic parameters were calculated using Phoenix WinNonlin software (Pharsight, USA).

[1] = female, ICR, mouse, whole blood, IV 1 mg/kg (n=3)
[2] = female, ICR, mouse, whole blood, PO 10 mg/kg (n=3)

- F (PO 10 mg/kg vs IV 1 mg/kg (n=3)): 31.1
- AUC(0-t) [1]: 3260 ng·h/mL
- clearance [1]: 4.45 mL/min/kg
- half-life [1]: 9.31 h
- Cmax [1]: 571 ng/mL
- Vd (female, ICR, mouse, whole blood, IV 1 mg/kg (n=3), read-out: Vss): 3.09 L/kg
- AUC(0-t) [2]: 10100 ng·h/mL
- Tmax [2]: 4 h
- Cmax [2]: 679 ng/mL
SMILES: CC1OCCCn2c(c3c4cc(ccc42)-c2csc(n2)CC(NC(=O)C2C(C)C2C)C(=O)N2NC(C(=O)OCC(C)(C)C3)C3CC2C3)-c2cc(N3CCN(C)CC3)cnc21 [Example 186, (1r,2R,3S)-2,3-dimethyl-N-((1^5S,6^4S,4S,Z)-1^5,10,10-trimethyl-1^2-(4-methylpiperazin-1-yl)-5,7-dioxo-1^8,1^9-dihydro-1^5H,1^7H-8-oxa-6^2,6^3-diaza-1(13,15)-pyrido[3',2':7,8][1,5]oxazonino[5,6-a]indola-2(4,2)-thiazola-6(2,4)-bicyclo[3.1.1]heptanacycloundecaphane-4-yl)cyclopropane-1-carbox amide]
